Results on 13 compounds are retold here after ChEMBL document CHEMBL5291721, “A preclinical secondary pharmacology resource illuminates target-adverse drug reaction associations of marketed drugs” (Nat Commun, 2023).

Assay [1] has as its target T1, Gastrin/cholecystokinin type B receptor (Homo sapiens, UniProt P32239).
T1 sequence (P32239 whole entry): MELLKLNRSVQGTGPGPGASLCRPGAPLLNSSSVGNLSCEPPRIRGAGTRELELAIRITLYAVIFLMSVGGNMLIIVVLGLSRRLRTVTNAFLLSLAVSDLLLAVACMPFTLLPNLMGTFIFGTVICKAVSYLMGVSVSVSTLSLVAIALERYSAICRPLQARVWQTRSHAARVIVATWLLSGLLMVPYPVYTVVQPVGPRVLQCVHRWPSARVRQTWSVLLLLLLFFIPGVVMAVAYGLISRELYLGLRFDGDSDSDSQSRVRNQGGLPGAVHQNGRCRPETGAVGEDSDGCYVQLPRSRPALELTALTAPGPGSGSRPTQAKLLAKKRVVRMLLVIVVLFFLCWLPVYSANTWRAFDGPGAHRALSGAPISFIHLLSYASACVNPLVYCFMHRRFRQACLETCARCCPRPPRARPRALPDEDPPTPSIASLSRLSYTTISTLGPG

Assay [2] has as its target 3',5'-cyclic-AMP phosphodiesterase 4D (Homo sapiens, UniProt Q08499). It counts as functional.
Assay [3] has as its target T2, Muscarinic acetylcholine receptor M2 (Homo sapiens, UniProt P08172).
T2 sequence (P08172 whole entry): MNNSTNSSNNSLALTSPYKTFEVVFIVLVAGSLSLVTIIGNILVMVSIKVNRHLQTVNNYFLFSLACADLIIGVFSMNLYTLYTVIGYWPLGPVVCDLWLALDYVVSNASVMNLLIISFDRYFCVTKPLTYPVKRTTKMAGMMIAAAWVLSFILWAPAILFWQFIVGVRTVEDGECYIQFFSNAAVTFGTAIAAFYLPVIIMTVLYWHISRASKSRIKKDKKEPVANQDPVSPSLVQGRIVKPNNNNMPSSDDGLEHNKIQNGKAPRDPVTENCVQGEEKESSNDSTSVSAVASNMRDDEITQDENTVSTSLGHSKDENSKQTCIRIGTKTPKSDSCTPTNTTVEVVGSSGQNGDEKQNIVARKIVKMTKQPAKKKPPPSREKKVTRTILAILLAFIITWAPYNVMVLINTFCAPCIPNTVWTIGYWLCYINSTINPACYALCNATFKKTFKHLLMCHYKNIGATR
It counts as functional, cell-based.

Assay [4] concerns the target T3, Prostaglandin G/H synthase 1 (Rattus norvegicus, UniProt Q63921).
T3 sequence (Q63921 whole entry): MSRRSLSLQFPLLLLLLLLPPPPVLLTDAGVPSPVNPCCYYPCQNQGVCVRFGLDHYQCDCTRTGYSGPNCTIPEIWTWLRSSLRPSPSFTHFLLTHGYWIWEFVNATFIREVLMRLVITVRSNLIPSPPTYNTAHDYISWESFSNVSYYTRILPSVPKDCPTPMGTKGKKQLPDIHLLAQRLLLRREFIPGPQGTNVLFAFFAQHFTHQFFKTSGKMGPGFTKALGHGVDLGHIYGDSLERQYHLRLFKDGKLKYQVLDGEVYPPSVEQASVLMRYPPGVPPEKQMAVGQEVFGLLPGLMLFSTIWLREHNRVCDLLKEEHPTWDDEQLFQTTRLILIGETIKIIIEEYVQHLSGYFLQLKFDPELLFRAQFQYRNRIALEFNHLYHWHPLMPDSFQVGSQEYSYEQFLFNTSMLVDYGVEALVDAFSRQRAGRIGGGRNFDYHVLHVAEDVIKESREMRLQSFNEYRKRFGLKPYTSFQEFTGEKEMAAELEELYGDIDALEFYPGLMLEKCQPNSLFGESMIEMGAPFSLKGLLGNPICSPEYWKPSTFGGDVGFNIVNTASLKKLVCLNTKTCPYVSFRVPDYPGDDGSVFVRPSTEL
The format is functional.

For a further assay, the target named is T4, Adenosine receptor A1 (Homo sapiens, UniProt P30542).
T4 sequence (P30542 whole entry): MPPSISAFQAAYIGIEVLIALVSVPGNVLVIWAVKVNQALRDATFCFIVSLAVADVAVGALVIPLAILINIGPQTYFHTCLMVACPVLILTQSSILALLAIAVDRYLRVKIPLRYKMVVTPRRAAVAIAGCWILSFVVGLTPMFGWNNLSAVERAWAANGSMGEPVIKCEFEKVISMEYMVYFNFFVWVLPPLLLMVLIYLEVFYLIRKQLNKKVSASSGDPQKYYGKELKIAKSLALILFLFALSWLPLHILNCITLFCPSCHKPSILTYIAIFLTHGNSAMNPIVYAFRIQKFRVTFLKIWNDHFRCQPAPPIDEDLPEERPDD

The target of the next assay is Vasopressin V1a receptor (Homo sapiens, UniProt P37288).
Sequence of Vasopressin V1a receptor (P37288 whole entry): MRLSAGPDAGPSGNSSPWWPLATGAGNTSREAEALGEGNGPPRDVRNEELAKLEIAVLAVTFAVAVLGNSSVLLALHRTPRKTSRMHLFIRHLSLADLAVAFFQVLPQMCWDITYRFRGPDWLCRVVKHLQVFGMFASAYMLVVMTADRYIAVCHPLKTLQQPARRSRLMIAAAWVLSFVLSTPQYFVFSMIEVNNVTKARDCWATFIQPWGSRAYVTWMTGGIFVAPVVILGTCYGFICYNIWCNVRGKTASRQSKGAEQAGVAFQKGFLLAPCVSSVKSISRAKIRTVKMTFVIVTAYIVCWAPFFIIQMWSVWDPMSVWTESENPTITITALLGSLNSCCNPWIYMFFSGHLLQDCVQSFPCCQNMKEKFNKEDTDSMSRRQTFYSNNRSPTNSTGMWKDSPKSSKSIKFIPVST
The target in the next assay is T5, Progesterone receptor (Homo sapiens, UniProt P06401).
T5 sequence (P06401 whole entry): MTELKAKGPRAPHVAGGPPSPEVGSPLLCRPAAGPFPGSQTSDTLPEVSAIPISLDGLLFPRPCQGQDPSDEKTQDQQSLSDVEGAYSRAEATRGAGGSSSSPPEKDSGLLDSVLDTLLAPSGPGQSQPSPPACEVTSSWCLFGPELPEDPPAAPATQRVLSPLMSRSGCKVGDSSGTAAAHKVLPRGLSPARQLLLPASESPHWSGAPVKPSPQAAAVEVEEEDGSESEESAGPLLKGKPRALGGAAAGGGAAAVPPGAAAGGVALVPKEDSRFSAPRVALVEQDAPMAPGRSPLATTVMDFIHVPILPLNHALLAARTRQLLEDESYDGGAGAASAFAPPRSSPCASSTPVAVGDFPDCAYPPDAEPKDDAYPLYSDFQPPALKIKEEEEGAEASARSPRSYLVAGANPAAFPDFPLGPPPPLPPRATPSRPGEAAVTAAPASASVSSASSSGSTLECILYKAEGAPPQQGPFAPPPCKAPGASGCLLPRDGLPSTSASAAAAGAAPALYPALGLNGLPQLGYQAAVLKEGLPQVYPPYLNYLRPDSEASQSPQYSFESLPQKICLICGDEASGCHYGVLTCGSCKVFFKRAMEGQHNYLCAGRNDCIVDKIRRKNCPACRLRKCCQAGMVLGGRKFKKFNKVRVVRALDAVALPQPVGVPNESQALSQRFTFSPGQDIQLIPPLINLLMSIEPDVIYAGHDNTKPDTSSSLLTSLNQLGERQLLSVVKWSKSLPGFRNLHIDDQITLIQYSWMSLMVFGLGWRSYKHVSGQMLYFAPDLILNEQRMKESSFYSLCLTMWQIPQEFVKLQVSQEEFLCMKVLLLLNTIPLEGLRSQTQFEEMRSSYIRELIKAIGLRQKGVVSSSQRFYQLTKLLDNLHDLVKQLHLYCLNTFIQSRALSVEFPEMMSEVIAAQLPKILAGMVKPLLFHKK
It counts as functional.

Another assay has as its target Melanocortin receptor 3 (Homo sapiens, UniProt P41968).

The structures appear in SMILES notation. Where a SMILES comes first, the peptide text is derived from it.

What is called AC50 is the midpoint of the concentration-response curve, whichever way the signal moves. High values mean activity only at high concentration, low ones activity at low concentration.
Further: assay procedure not described here.

Sequence of 3',5'-cyclic-AMP phosphodiesterase 4D (Q08499 whole entry): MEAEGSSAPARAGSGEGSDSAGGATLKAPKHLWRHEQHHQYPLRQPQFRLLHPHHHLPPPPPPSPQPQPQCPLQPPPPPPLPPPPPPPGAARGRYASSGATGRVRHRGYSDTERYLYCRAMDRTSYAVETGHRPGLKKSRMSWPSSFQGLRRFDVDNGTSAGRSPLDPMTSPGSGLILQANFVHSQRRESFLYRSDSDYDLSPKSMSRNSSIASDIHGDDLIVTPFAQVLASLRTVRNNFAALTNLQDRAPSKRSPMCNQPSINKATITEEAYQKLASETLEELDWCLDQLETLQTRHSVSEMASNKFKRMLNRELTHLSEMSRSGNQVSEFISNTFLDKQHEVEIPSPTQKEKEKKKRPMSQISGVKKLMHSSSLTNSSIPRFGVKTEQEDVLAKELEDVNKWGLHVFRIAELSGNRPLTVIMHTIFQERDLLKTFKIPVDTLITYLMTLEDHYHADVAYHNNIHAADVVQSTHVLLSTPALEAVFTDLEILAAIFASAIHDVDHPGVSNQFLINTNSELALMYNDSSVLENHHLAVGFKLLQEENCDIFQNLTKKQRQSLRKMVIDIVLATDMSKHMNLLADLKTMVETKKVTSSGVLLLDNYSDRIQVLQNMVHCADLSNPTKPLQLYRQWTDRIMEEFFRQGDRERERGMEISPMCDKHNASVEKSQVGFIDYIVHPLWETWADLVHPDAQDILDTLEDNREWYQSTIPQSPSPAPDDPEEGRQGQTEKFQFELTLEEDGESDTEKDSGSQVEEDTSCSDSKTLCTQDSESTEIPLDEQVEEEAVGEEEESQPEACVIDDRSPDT
Sequence of Melanocortin receptor 3 (P41968 whole entry): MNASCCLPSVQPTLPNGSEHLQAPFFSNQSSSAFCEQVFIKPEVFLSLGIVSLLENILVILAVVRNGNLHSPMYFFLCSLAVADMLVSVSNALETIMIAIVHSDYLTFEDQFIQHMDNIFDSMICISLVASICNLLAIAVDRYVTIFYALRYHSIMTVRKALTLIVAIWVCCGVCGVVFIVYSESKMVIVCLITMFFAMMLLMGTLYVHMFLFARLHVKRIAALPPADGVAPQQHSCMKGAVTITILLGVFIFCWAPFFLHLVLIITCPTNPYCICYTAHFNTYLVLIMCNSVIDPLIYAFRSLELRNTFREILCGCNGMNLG

With `C[C@H](N)C(=O)N[C@@H](CCC(N)=O)C(=O)O` [ALANYL GLUTAMINE] (H-Ala-Gln-OH), the AC50 (in assay [1]; in assay [2]; in assay [3]; in assay [4]; on Adenosine receptor A1; on Vasopressin V1a receptor) was over 30 µM in each case. The AC50 at Progesterone receptor and at Melanocortin receptor 3 was over 30 µM each time.
With `COc1cc(N)cn[n+]1-c1ccccc1` [AMEZINIUM METILSULFATE], the concentration at half-maximal activity (AC50) (in assay [1]; in assay [2]; in assay [3]; in assay [4]; at Adenosine receptor A1; at Vasopressin V1a receptor) was over 30 µM in each case. Further, the half-maximal activity concentration (AC50) at Progesterone receptor and at Melanocortin receptor 3 was over 30 µM each time.
For the compound `COc1ccc(-n2nc(C(N)=O)c3c2C(=O)N(c2ccc(N4CCCCC4=O)cc2)CC3)cc1` [APIXABAN], the AC50 (in assay [1]; in assay [2]; in assay [3]; in assay [4]; at Adenosine receptor A1; on Vasopressin V1a receptor) was over 30 µM throughout. For the same compound, the AC50 on Progesterone receptor and on Melanocortin receptor 3 was over 30 µM in each case.
Consider `CCN(CC)CCCN(c1ccccc1)C1Cc2ccccc2C1` [APRINDINE], for which the AC50 (in assay [1]; in assay [2]; in assay [3]; in assay [4]; at Adenosine receptor A1; at Vasopressin V1a receptor) was over 30 µM in each case. Also, the AC50 on Progesterone receptor and on Melanocortin receptor 3 was over 30 µM in each case.
In the case of `CO/N=C(\C(=O)N[C@@H]1C(=O)N2C(C(=O)O)=C(CSc3nc(C)c(CC(=O)O)s3)CS[C@H]12)c1csc(N)n1` [CEFODIZIME], the AC50 in assay [1] is over 30 µM; in assay [2] it was over 30 µM; in assay [3] it was over 30 µM; in assay [4] it was 27 µM; on Adenosine receptor A1 it was over 30 µM; at Vasopressin V1a receptor it was over 30 µM. Besides, the AC50 at Progesterone receptor and at Melanocortin receptor 3 was over 30 µM throughout.
Regarding `CO/N=C(\C(=O)N[C@@H]1C(=O)N2C(C(=O)[O-])=C(C[n+]3ccc(N)n3CCO)CS[C@H]12)c1csc(N)n1` [CEFOSELIS], the AC50 (in assay [1]; in assay [2]; in assay [3]; in assay [4]; on Adenosine receptor A1; at Vasopressin V1a receptor) was over 30 µM in each case. For the same compound, the AC50 at Progesterone receptor and on Melanocortin receptor 3 was over 30 µM in each case.
Regarding `CC(=O)OCC1=C(C(=O)O)N2C(=O)[C@@H](NC(=O)Cc3cccs3)[C@H]2SC1` [CEPHALOTHIN], the AC50 (in assay [1]; in assay [2]; in assay [3]; in assay [4]; on Adenosine receptor A1; at Vasopressin V1a receptor) was over 30 µM in each case. Also, the AC50 on Progesterone receptor and at Melanocortin receptor 3 was over 30 µM each time.
Turning to `CC1=C(C(=O)O)N2C(=O)[C@@H](NC(=O)[C@H](N)C3=CCC=CC3)[C@H]2SC1` [CEPHRADINE], the AC50 (in assay [1]; in assay [2]; in assay [3]; in assay [4]; on Adenosine receptor A1; on Vasopressin V1a receptor) was over 30 µM each time. Moreover, the AC50 at Progesterone receptor is 22 µM; on Melanocortin receptor 3, over 30 µM.
As for `COc1ccc(C(Cl)=C(c2ccc(OC)cc2)c2ccc(OC)cc2)cc1` [CHLOROTRIANISENE], the AC50 in assay [1] is over 30 µM; in assay [2], over 30 µM; in assay [3] it was over 30 µM; in assay [4], 0.259 µM; at Adenosine receptor A1, over 30 µM; on Vasopressin V1a receptor it was over 30 µM. Moreover, the AC50 at Progesterone receptor and at Melanocortin receptor 3 was over 30 µM each time.
Turning to `CCCO[C@H]1[C@@H]([C@@H](COCc2ccc(Cl)cc2)OCc2ccc(Cl)cc2)OC(OCC)[C@@H]1O` (some centres undefined) [CLOBENOSIDE], the AC50 in assay [1] was over 30 µM; in assay [2] it was over 30 µM; in assay [3] it was over 30 µM; in assay [4], over 10 µM; on Adenosine receptor A1, over 30 µM; at Vasopressin V1a receptor it was over 30 µM. The figures for the AC50 at Progesterone receptor and on Melanocortin receptor 3 were 22 µM and over 30 µM, respectively.
For the compound `Nc1nc(Cl)nc2c1ncn2[C@@H]1O[C@H](CO)[C@@H](O)[C@@H]1F` [CLOFARABINE], the AC50 in assay [1] was over 30 µM; in assay [2] it was 0.17 µM; in assay [3], over 10 µM; in assay [4], over 30 µM; at Adenosine receptor A1 it was 2.3 µM; on Vasopressin V1a receptor it was over 30 µM. The AC50 on Progesterone receptor and on Melanocortin receptor 3 was over 30 µM each time.
As to `C=C(c1ccccc1OCc1cccc(Cl)c1)n1ccnc1` [CROCONAZOLE], the AC50 in assay [1] was over 30 µM; in assay [2], 7.1 µM; in assay [3] it was over 10 µM; in assay [4] it was 21.1 µM; at Adenosine receptor A1 it was over 30 µM; on Vasopressin V1a receptor, over 30 µM. The AC50 on Progesterone receptor and on Melanocortin receptor 3 was over 30 µM each time.
Take `CCCCCCOC(=O)NC(=N)c1ccc(NCc2nc3cc(C(=O)N(CCC(=O)OCC)c4ccccn4)ccc3n2C)cc1` [DABIGATRAN ETEXILATE]: the AC50 (in assay [1]; in assay [2]; in assay [3]; in assay [4]; on Adenosine receptor A1; at Vasopressin V1a receptor) was over 30 µM in each case. For the same compound, the AC50 on Progesterone receptor and on Melanocortin receptor 3 was over 30 µM each time.
